From US20210045385A1, “PYRIDAZINONE-SUBSTITUTED KETOXIMES AS HERBICIDES” (FMC Corporation, priority 2018, published 2021)

Experiments:
Assay type in all cases: in vivo
[1] = test system: barnyardgrass (Echinochloa crus-galli); assay: Test B flooded paddy test, visual plant response rating; conditions: 250 g ai/ha, Flood, applied to paddy water, 2-leaf stage, evaluated after 13 to 15 days
Procedure, shortened: (§1)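 Flooded-pot treatment: water 3 cm over the soil, chemical delivered into that water, depth unchanged for the duration. Assessed by eye versus controls following 13–15 greenhouse days; plants were at 2 leaves when dosed.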

[2] = test system: sedge, umbrella (small-flower umbrella sedge, Cyperus difformis); assay: as above; conditions: 250 g ai/ha, Flood, applied to paddy water, 2-leaf stage, evaluated after 13 to 15 days
Procedure, shortened: as §1

[3] = test system: ducksalad (Heteranhera limosa); assay: as above; conditions: 250 g ai/ha, Flood, applied to paddy water, 2-leaf stage, evaluated after 13 to 15 days
Procedure, shortened: as §1

[4] = test system: rice (Oryza sativa); assay: as above; conditions: 250 g ai/ha, Flood, applied to paddy water, 2-leaf stage, evaluated after 13 to 15 days
Procedure, shortened: as §1

[5] = test system: barnyardgrass (Echinochloa crus-galli); assay: Test A preemergence, visual plant response rating; conditions: for Barnyardgrass plant response rating: 125 g ai/ha, preemergence, 0 to 100 scale, 0 no effect, 100 complete control; for Barnyardgrass plant response rating (0 to 100 scale): 500 g ai/ha Preemergence, approx. 10 days
Procedure, shortened: (§2)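 Ratings 0–100 (100 = complete control), visual, vs untreated controls at ~10 days. Application pre- or postemergence; solvent mixture with surfactant; loam/sand medium.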

[6] = test system: kochia (Kochia scoparia); assay: Test A preemergence, visual plant response rating; conditions: for Kochia plant response rating: 125 g ai/ha, preemergence, 0 to 100 scale, 0 no effect, 100 complete control; for Kochia plant response rating (0 to 100 scale): 500 g ai/ha Preemergence, approx. 10 days
Procedure, shortened: as §2

[7] = test system: ragweed (common ragweed, Ambrosia elatior); assay: Test A preemergence, visual plant response rating; conditions: for Ragweed plant response rating: 125 g ai/ha, preemergence, 0 to 100 scale, 0 no effect, 100 complete control; for Ragweed plant response rating (0 to 100 scale): 500 g ai/ha Preemergence, approx. 10 days
Procedure, shortened: as §2

[8] = test system: foxtail, giant (giant foxtail, Setaria faberii); assay: Test A preemergence, visual plant response rating; conditions: for Foxtail, Giant plant response rating: 125 g ai/ha, preemergence, 0 to 100 scale, 0 no effect, 100 complete control; for Foxtail, Giant plant response rating (0 to 100 scale): 500 g ai/ha Preemergence, approx. 10 days
Procedure, shortened: as §2

[9] = test system: Italian ryegrass (Lolium multiflorum); assay: Test A preemergence, visual plant response rating; conditions: for Ryegrass, Italian plant response rating: 125 g ai/ha, preemergence, 0 to 100 scale, 0 no effect, 100 complete control; for Ryegrass, Italian plant response rating (0 to 100 scale): 500 g ai/ha Preemergence, approx. 10 days
Procedure, shortened: as §2

[10] = test system: pigweed (Amaranthus retroflexus); assay: Test A preemergence, visual plant response rating; conditions: for Pigweed plant response rating: 125 g ai/ha, preemergence, 0 to 100 scale, 0 no effect, 100 complete control; for Pigweed plant response rating (0 to 100 scale): 500 g ai/ha Preemergence, approx. 10 days
Procedure, shortened: as §2

[11] = test system: barnyardgrass (Echinochloa crus-galli); assay: Test A postemergence, visual plant response rating; conditions: for Barnyardgrass plant response rating (0 to 100 scale): 500 g ai/ha, postemergence, 0 is no effect, 100 is complete control; for Barnyardgrass plant response rating: Postemergence, 125 g ai/ha, 0 to 100 scale (0 no effect, 100 complete control)
Procedure, shortened: as §2

[12] = test system: wheat (Triticum aestivum); assay: Test A postemergence, visual plant response rating; conditions: for Wheat plant response rating: 125 g ai/ha, 0 to 100 scale (0 no effect, 100 complete control)
Procedure, shortened: as §2

[13] = test system: blackgrass (Alopecurus myosuroides); assay: Test A postemergence, visual plant response rating; conditions: for Blackgrass plant response rating (0 to 100 scale): 500 g ai/ha, postemergence, 0 is no effect, 100 is complete control; for Blackgrass plant response rating: Postemergence, 125 g ai/ha, 0 to 100 scale (0 no effect, 100 complete control)
Procedure, shortened: as §2

[14] = test system: kochia (Kochia scoparia); assay: Test A postemergence, visual plant response rating; conditions: for Kochia plant response rating (0 to 100 scale): 500 g ai/ha, postemergence, 0 is no effect, 100 is complete control; for Kochia plant response rating: Postemergence, 125 g ai/ha, 0 to 100 scale (0 no effect, 100 complete control)
Procedure, shortened: as §2

[15] = test system: ragweed (common ragweed, Ambrosia elatior); assay: Test A postemergence, visual plant response rating; conditions: for Ragweed plant response rating (0 to 100 scale): 500 g ai/ha, postemergence, 0 is no effect, 100 is complete control; for Ragweed plant response rating: Postemergence, 125 g ai/ha, 0 to 100 scale (0 no effect, 100 complete control)
Procedure, shortened: as §2

[16] = test system: corn (Zea mays); assay: Test A postemergence, visual plant response rating; conditions: for Corn plant response rating (0 to 100 scale): 500 g ai/ha, postemergence, 0 is no effect, 100 is complete control; for Corn plant response rating: Postemergence, 125 g ai/ha, 0 to 100 scale (0 no effect, 100 complete control)
Procedure, shortened: as §2

[17] = test system: galium (catchweed bedstraw, Galium aparine); assay: Test A postemergence, visual plant response rating; conditions: for Galium plant response rating (0 to 100 scale): 500 g ai/ha, postemergence, 0 is no effect, 100 is complete control; for Galium plant response rating: Postemergence, 125 g ai/ha, 0 to 100 scale (0 no effect, 100 complete control)
Procedure, shortened: as §2

[18] = test system: foxtail, giant (giant foxtail, Setaria faberii); assay: Test A postemergence, visual plant response rating; conditions: for Foxtail, Giant plant response rating (0 to 100 scale): 500 g ai/ha, postemergence, 0 is no effect, 100 is complete control; for Foxtail, Giant plant response rating: Postemergence, 125 g ai/ha, 0 to 100 scale (0 no effect, 100 complete control)
Procedure, shortened: as §2

[19] = test system: Italian ryegrass (Lolium multiflorum); assay: Test A postemergence, visual plant response rating; conditions: for Ryegrass, Italian plant response rating: 125 g ai/ha, 0 to 100 scale (0 no effect, 100 complete control)
Procedure, shortened: as §2

[20] = test system: pigweed (Amaranthus retroflexus); assay: Test A postemergence, visual plant response rating; conditions: for Pigweed plant response rating (0 to 100 scale): 500 g ai/ha, postemergence, 0 is no effect, 100 is complete control; for Pigweed plant response rating: Postemergence, 125 g ai/ha, 0 to 100 scale (0 no effect, 100 complete control)
Procedure, shortened: as §2

[21] = 500 g ai/ha, postemergence, 0 is no effect, 100 is complete control

CON=C(c1c(O)c(C)nn(C)c1=O)c1cccc2ccc(Cl)cc12 [Compound 111]
Plant response rating, Barnyardgrass (0 to 100 scale, 0 is no effect, 100 is complete control) [1]: 0
Plant response rating, Sedge, Umbrella (0 to 100 scale, 0 is no effect, 100 is complete control) [2]: 0
Plant response rating, Ducksalad (0 to 100 scale, 0 is no effect, 100 is complete control) [3]: 0
Plant response rating, Rice (0 to 100 scale, 0 is no effect, 100 is complete control) [4]: 0
Barnyardgrass plant response rating [5]: 60
Barnyardgrass plant response rating (0 to 100 scale) [5]: 70
Kochia plant response rating [6]: 20
Kochia plant response rating (0 to 100 scale) [6]: 100
Ragweed plant response rating [7]: 70
Ragweed plant response rating (0 to 100 scale) [7]: 100
Foxtail, Giant plant response rating [8]: 50
Foxtail, Giant plant response rating (0 to 100 scale) [8]: 90
Ryegrass, Italian plant response rating [9]: 30
Ryegrass, Italian plant response rating (0 to 100 scale) [9]: 70
Pigweed plant response rating [10]: 100
Pigweed plant response rating (0 to 100 scale) [10]: 100
Barnyardgrass plant response rating (0 to 100 scale) [11]: 80
Barnyardgrass plant response rating [11]: 50
Wheat plant response rating (0 to 100 scale) [12, 21]: 60
Wheat plant response rating ([12]; Postemergence): 0
Blackgrass plant response rating (0 to 100 scale) [13]: 100
Blackgrass plant response rating [13]: 80
Kochia plant response rating (0 to 100 scale) [14]: 60
Kochia plant response rating [14]: 40
Ragweed plant response rating (0 to 100 scale) [15]: 80
Ragweed plant response rating [15]: 80
Corn plant response rating (0 to 100 scale) [16]: 30
Corn plant response rating [16]: 20
Galium plant response rating (0 to 100 scale) [17]: 90
Galium plant response rating [17]: 80
Foxtail, Giant plant response rating (0 to 100 scale) [18]: 70
Foxtail, Giant plant response rating [18]: 60
Ryegrass, Italian plant response rating (0 to 100 scale) [19, 21]: 90
Ryegrass, Italian plant response rating ([19]; Postemergence): 70
Pigweed plant response rating (0 to 100 scale) [20]: 90
Pigweed plant response rating [20]: 60

CO/N=C(/c1cscc1C)c1c(O)c(C)nn(C)c1=O [Compound 140]
Plant response rating, Barnyardgrass (0 to 100 scale, 0 is no effect, 100 is complete control) [1]: 0
Plant response rating, Sedge, Umbrella (0 to 100 scale, 0 is no effect, 100 is complete control) [2]: 0
Plant response rating, Ducksalad (0 to 100 scale, 0 is no effect, 100 is complete control) [3]: 0
Plant response rating, Rice (0 to 100 scale, 0 is no effect, 100 is complete control) [4]: 0
Barnyardgrass plant response rating [5]: 0
Barnyardgrass plant response rating (0 to 100 scale) [5]: 0
Kochia plant response rating [6]: 0
Kochia plant response rating (0 to 100 scale) [6]: 0
Ragweed plant response rating [7]: 10
Ragweed plant response rating (0 to 100 scale) [7]: 50
Foxtail, Giant plant response rating [8]: 0
Foxtail, Giant plant response rating (0 to 100 scale) [8]: 10
Ryegrass, Italian plant response rating [9]: 20
Ryegrass, Italian plant response rating (0 to 100 scale) [9]: 50
Pigweed plant response rating [10]: 0
Pigweed plant response rating (0 to 100 scale) [10]: 90
Barnyardgrass plant response rating (0 to 100 scale) [11]: 20
Barnyardgrass plant response rating [11]: 0
Wheat plant response rating (0 to 100 scale) [12, 21]: 0
Wheat plant response rating (0 to 100 scale) ([12]; Postemergence, approx. 10 days): 0
Blackgrass plant response rating (0 to 100 scale) [13]: 0
Blackgrass plant response rating [13]: 0
Kochia plant response rating (0 to 100 scale) [14]: 60
Kochia plant response rating [14]: 20
Ragweed plant response rating (0 to 100 scale) [15]: 70
Ragweed plant response rating [15]: 50
Corn plant response rating (0 to 100 scale) [16]: 20
Corn plant response rating [16]: 10
Galium plant response rating (0 to 100 scale) [17]: 70
Galium plant response rating [17]: 70
Foxtail, Giant plant response rating (0 to 100 scale) [18]: 30
Foxtail, Giant plant response rating [18]: 10
Ryegrass, Italian plant response rating (0 to 100 scale) [19, 21]: 60
Ryegrass, Italian plant response rating (0 to 100 scale) ([19]; Postemergence, rate not given, approx. 10 days): 10
Pigweed plant response rating (0 to 100 scale) [20]: 90
Pigweed plant response rating [20]: 80

CCO/N=C(\c1c(O)c(C)nn(C)c1=O)c1ccc(F)c2ccccc12 [Compound 85]
Plant response rating, Barnyardgrass (0 to 100 scale, 0 is no effect, 100 is complete control) [1]: 0
Plant response rating, Sedge, Umbrella (0 to 100 scale, 0 is no effect, 100 is complete control) [2]: 0
Plant response rating, Ducksalad (0 to 100 scale, 0 is no effect, 100 is complete control) [3]: 0
Plant response rating, Rice (0 to 100 scale, 0 is no effect, 100 is complete control) [4]: 0
Barnyardgrass plant response rating [5]: 70
Barnyardgrass plant response rating (0 to 100 scale) [5]: 90
Kochia plant response rating [6]: 10
Kochia plant response rating (0 to 100 scale) [6]: 50
Ragweed plant response rating [7]: 90
Ragweed plant response rating (0 to 100 scale) [7]: 100
Foxtail, Giant plant response rating [8]: 80
Foxtail, Giant plant response rating (0 to 100 scale) [8]: 100
Ryegrass, Italian plant response rating [9]: 100
Ryegrass, Italian plant response rating (0 to 100 scale) [9]: 100
Pigweed plant response rating [10]: 100
Pigweed plant response rating (0 to 100 scale) [10]: 100
Barnyardgrass plant response rating (0 to 100 scale) [11]: 80
Barnyardgrass plant response rating [11]: 50
Wheat plant response rating (0 to 100 scale) [12, 21]: 50
Wheat plant response rating ([12]; Postemergence): 40
Blackgrass plant response rating (0 to 100 scale) [13]: 100
Blackgrass plant response rating [13]: 90
Kochia plant response rating (0 to 100 scale) [14]: 90
Kochia plant response rating [14]: 70
Ragweed plant response rating (0 to 100 scale) [15]: 100
Ragweed plant response rating [15]: 90
Corn plant response rating (0 to 100 scale) [16]: 30
Corn plant response rating [16]: 10
Galium plant response rating (0 to 100 scale) [17]: 90
Galium plant response rating [17]: 80
Foxtail, Giant plant response rating (0 to 100 scale) [18]: 80
Foxtail, Giant plant response rating [18]: 70
Ryegrass, Italian plant response rating (0 to 100 scale) [19, 21]: 100
Ryegrass, Italian plant response rating ([19]; Postemergence): 90
Pigweed plant response rating (0 to 100 scale) [20]: 90
Pigweed plant response rating [20]: 80
